Structures can show the parent of a compound that is named as a salt.
How the values were obtained:
[1] = hygroscopicity / Dynamic Vapor Sorption (DVS) of hydrochloride salt crystal forms; assay type: physicochemical; settings: for hygroscopicity (Crystal Form Table) / hygroscopicity: hydrochloride salt crystal forms; for water absorbed eventually: 90% RH
Protocol: Dynamic Vapor Sorption (DVS) was done at 26° C.

[2] = biological target: T1, alpha7 nicotinic acetylcholine receptor (Rattus norvegicus, UniProt Q05941); test: functional FLIPR assay, alpha7 nAChR stably expressed in GH4C1 cells; assay type: cell-based; settings: agonist, concentration range 0.001 to 30 microM
T1 construct: expressed in transfected cells
Source text: Rat GH4C1 cells were then transfected with the rat receptor, cloned and analyzed for functional alpha7 nicotinic receptor expression employing a FLIPR assay to measure changes in intracellular calcium concentrations.
The FLIPR system allows the measurements of real time Ca^2+-concentration changes in living cells using a Ca^2+ sensitive fluorescence dye (such as Fluo4). This instrument enables the screening for agonists and antagonists for alpha 7 nAChR channels stably expressed in GH4C1 cells.
GH4C1 cells stably transfected with rat-alpha7-nAChR (see above) were used. These cells are poorly adherent and therefore pretreatment of flasks and plates with poly-D-lysine was carried out. Cells are grown in 150 cm^2 T-flasks, filled with 30 ml of medium at 37° C. and 5% CO2.
EC50 and IC50 values were calculated using the IDBS XLfit4.1 software package employing a sigmoidal concentration-response (variable slope) equation: Y=Bottom+((Top−Bottom)/(1+((EC50/X)^HillSlope))
The compounds were tested using the functional FLIPR primary screening assay employing the stable recombinant GH4C1 cell line expressing the alpha7 nAChR. Hits identified were validated further by generation of concentration-response curves.

[3] = solubility in water of hydrochloride salt crystal forms; assay type: physicochemical

T1 sequence (Q05941 23-502): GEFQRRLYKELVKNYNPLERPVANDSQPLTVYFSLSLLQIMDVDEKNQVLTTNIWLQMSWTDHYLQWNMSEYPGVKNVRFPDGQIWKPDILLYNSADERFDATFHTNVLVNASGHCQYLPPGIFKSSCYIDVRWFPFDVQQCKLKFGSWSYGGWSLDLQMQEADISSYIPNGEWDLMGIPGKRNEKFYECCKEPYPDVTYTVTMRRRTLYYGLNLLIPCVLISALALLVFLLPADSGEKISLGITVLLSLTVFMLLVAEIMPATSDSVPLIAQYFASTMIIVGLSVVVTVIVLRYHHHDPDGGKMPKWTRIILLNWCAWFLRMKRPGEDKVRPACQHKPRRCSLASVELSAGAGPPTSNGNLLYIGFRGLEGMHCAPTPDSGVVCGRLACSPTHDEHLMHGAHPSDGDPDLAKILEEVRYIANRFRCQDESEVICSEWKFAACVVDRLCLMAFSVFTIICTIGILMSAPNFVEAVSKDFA

With COc1ccc(-c2cc(NC(=O)CCCCN3CCCN(C(C)=O)CC3)[nH]n2)cc1 (as salt: hydrochloric acid salt) [5-(4-Acetyl-[1,4]diazepan-1-yl)-pentanoic acid [5-(4-methoxy-phenyl)-2H-pyrazol-3-yl]-amide] as the compound, how does the melting point read?
Its melting point is 185 °C.

Which melting point does the source give for COc1ccc(-c2cc(NC(=O)CCCCN3CCCN(C(C)=O)CC3)[nH]n2)cc1 (as salt: hydrochloride) [Example 4, 5-(4-Acetyl-[1,4]diazepan-1-yl)-pentanoic acid [5-(4-methoxy-phenyl)-2H-pyrazol-3-yl]-amide] here?
Its melting point is 132 to 133 °C.

Which “hygroscopicity (Crystal Form Table)” value [1] does the source give for COc1ccc(-c2cc(NC(=O)CCCCN3CCCN(C(C)=O)CC3)[nH]n2)cc1 [Crystal Form III, 5-(4-Acetyl-[1,4]diazepan-1-yl)-pentanoic acid [5-(4-methoxy-phenyl)-2H-pyrazol-3-yl]-amide] here?
The value was “Hygroscopic”.

For COc1ccc(-c2cc(NC(=O)CCCCN3CCCN(C(C)=O)CC3)[nH]n2)cc1 [Crystal Form V, 5-(4-Acetyl-[1,4]diazepan-1-yl)-pentanoic acid [5-(4-methoxy-phenyl)-2H-pyrazol-3-yl]-amide], which water uptake ([1]; at RH 50%) is on record?
Its water uptake is “(7% at RH”.

And the “hygroscopicity (Crystal Form Table)” value [1]?
Its value is “Hygroscopic”.

With C[N+]1(C)CCN(c2ccccc2)CC1 [DMPP] as the compound, how does the EC50 [2] read?
Its EC50 is 980 ± 470 nM.

Which water absorbed eventually ([1]; DVS at 26° C.) does the source give for COc1ccc(-c2cc(NC(=O)CCCCN3CCCN(C(C)=O)CC3)n[nH]2)cc1.Cl [Form I, 5-(4-acetyl-1,4-diazepan-1-yl)-N-(5-(4-methoxyphenyl)-1H-pyrazol-3-yl)pentanamide hydrochloric salt Form I] here?
The water absorbed eventually was “up to 2%”.

What about the “relative humidity at which the form picks up moisture” value ([1]; DVS at 26° C.) of the same compound?
The value was “about 50%”.

And the moisture gain ([1]; at 70-100% RH, lost without significant hysteresis on decreasing RH)?
Its moisture gain is “at least 12%”.

And the moisture gain ([1]; equilibrated at RH less than or equal to 70%)?
The moisture gain was “about 0.5%”.

And the “hygroscopicity” value [1]?
Its value is “relatively non-hygroscopic”.

And the solubility in water [3]?
The solubility in water was “considerably soluble in water”.

Which water absorbed eventually ([1]; DVS at 26° C.) does the source give for COc1ccc(-c2cc(NC(=O)CCCCN3CCCN(C(C)=O)CC3)n[nH]2)cc1.Cl [Form II, 5-(4-acetyl-1,4-diazepan-1-yl)-N-(5-(4-methoxyphenyl)-1H-pyrazol-3-yl)pentanamide hydrochloric salt Form II] here?
The water absorbed eventually was “up to 7%”.

What about the “relative humidity at which the form picks up moisture” value ([1]; DVS at 26° C.) of the same compound?
Its value is “about 20%”.

And the “water held at low RH” value ([1]; RH 0%, DVS at 26° C.)?
The value was 2%.

What about the “hygroscopicity” value [1] of the same compound?
The value was “non-hygroscopic”.

What about the solubility in water [3] of the same compound?
The solubility in water was “considerably soluble in water”.

With COc1ccc(-c2cc(NC(=O)CCCCN3CCCN(C(C)=O)CC3)n[nH]2)cc1.Cl [mono-HCl salt, 5-(4-Acetyl-[1,4]diazepan-1-yl)-pentanoic acid [5-(4-methoxy-phenyl)-1H-pyrazol-3-yl]-amide (mono hydrochloride salt)] as the compound, how does the “form change after DVS test” value [1] read?
Its value is “NO form change”.

Source: patent US8163729B2 (Wyeth, priority 2007, dated 2012)
